Legend:
[1] = biological target: T1, Notum (Homo sapiens, UniProt Q6P988, C330S); experiment: SPR equilibrium binding to biotinylated Notum on streptavidin chip; parameters: The human Notum enzyme core comprising amino acids S81–T451 with a C330S mutation; made in house; dialyzed conditioned medium used without purification; settings: result in words
T1 sequence (Q6P988 81-451 C330S): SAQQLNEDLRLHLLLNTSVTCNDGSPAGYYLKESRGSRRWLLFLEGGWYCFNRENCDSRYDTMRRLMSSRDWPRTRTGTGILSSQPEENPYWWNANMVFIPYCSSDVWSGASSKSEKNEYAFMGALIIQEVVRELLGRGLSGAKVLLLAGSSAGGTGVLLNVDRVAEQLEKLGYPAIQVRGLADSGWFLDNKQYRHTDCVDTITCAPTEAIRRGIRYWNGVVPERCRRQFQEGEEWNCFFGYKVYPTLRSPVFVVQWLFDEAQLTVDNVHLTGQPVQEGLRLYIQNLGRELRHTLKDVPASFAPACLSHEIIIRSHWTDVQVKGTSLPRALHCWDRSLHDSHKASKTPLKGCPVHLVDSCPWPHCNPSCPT
Experimental: The human Notum core sequence was cloned in a pHL-Avi3 vector[49] and co-transfected with the pDisplay_BirA-ER plasmid[50] into HEK293T cells with the media supplemented with 20 µM biotin. This procedure allows in vivo biotinylation to occur, and the dialyzed conditioned medium was directly used for SA sensor chip immobilization without protein purification. […] Approximately 2500 resonance units (RU) of the biotinylated Notum was coupled onto the chip. […] The response was plotted versus the concentration of the analytes and fitted by nonlinear regression to a one-site saturation binding model (GraphPad Prism 8).

[2] = biological target: T1, Notum; experiment: Notum activity assay with OPTS as substrate; type: biochemical; parameters: The human Notum enzyme core comprising amino acids S81–T451 with a C330S mutation; made in house; dialyzed conditioned medium used without purification; settings: result in words
Experimental: OPTS is a common lipase substrate with an octanoyl lipid linked to a fluorescent moiety. It is not a natural Notum substrate; however, it can be used to quantify the enzymatic activity of purified Notum protein[23],[25],[28]. […] The fluorescent lipase substrate OPTS was dissolved in water at a concentration of 20 µM. […] The inhibition curves were fitted with a one-site model with GraphPad Prism 8 software.

[3] = biological target: T1, Notum; experiment: Thermal shift assay (SYPRO Orange) of Notum; settings: compound 500 µM; for Thermoflour melting curve fluorescence of Notum: Fig 2c
Experimental: Reference wells, i.e. solutions without compounds were used to compare the melting temperature (Tm). The experiments were performed in triplicate.

`Cn1c(=O)[nH]c2ncn(C)c2c1=O` [paraxanthine, 1,7-dimethylxanthine] was tested. Which “Binding to Notum (SPR response)” value [1] did it give?
Its value is “did not observe significant responses”.

What about the “Binding to Notum (SPR response)” value ([1]; listed as Paraxanthine) of the same molecule?
Its value is “do not bind Notum”.

And the “Notum inhibitory effect in OPTS enzyme assay” value [2]?
The value was “could not detect obvious Notum inhibitory effects”.

And the “Thermoflour melting curve fluorescence of Notum” value ([3]; Temperature 24.5)?
The value was 1987.07.

And the “Thermoflour melting curve fluorescence of Notum” value ([3]; Temperature 25.5)?
Its value is 1782.57.

And the “Thermoflour melting curve fluorescence of Notum” value ([3]; Temperature 26.5)?
The value was 1579.35.

And the “Thermoflour melting curve fluorescence of Notum” value ([3]; Temperature 27.5)?
Its value is 1384.26.

What about the “Thermoflour melting curve fluorescence of Notum” value ([3]; Temperature 28.5) of the same molecule?
The value was 1239.77.

And the “Thermoflour melting curve fluorescence of Notum” value ([3]; Temperature 29.5)?
The value was 1129.04.

What about the “Thermoflour melting curve fluorescence of Notum” value ([3]; Temperature 30.5) of the same molecule?
The value was 1031.12.

And the “Thermoflour melting curve fluorescence of Notum” value ([3]; Temperature 31.5)?
Its value is 918.053.

What about the “Thermoflour melting curve fluorescence of Notum” value ([3]; Temperature 32.5) of the same molecule?
The value was 770.537.

What about the “Thermoflour melting curve fluorescence of Notum” value ([3]; Temperature 33.5) of the same molecule?
Its value is 609.721.

And the “Thermoflour melting curve fluorescence of Notum” value ([3]; Temperature 34.5)?
Its value is 426.953.

What about the “Thermoflour melting curve fluorescence of Notum” value ([3]; Temperature 35.5) of the same molecule?
Its value is 213.386.

And the “Thermoflour melting curve fluorescence of Notum” value ([3]; Temperature 36.5)?
The value was -34.2239.

And the “Thermoflour melting curve fluorescence of Notum” value ([3]; Temperature 37.5)?
Its value is -296.182.

What about the “Thermoflour melting curve fluorescence of Notum” value ([3]; Temperature 38.5) of the same molecule?
Its value is -499.812.

And the “Thermoflour melting curve fluorescence of Notum” value ([3]; Temperature 39.5)?
The value was -637.629.

And the “Thermoflour melting curve fluorescence of Notum” value ([3]; Temperature 40.5)?
The value was -751.582.

What about the “Thermoflour melting curve fluorescence of Notum” value ([3]; Temperature 41.5) of the same molecule?
The value was -837.247.

And the “Thermoflour melting curve fluorescence of Notum” value ([3]; Temperature 42.5)?
The value was -891.039.

And the “Thermoflour melting curve fluorescence of Notum” value ([3]; Temperature 43.5)?
Its value is -901.613.

What about the “Thermoflour melting curve fluorescence of Notum” value ([3]; Temperature 44.5) of the same molecule?
The value was -863.856.

What about the “Thermoflour melting curve fluorescence of Notum” value ([3]; Temperature 45.5) of the same molecule?
Its value is -795.543.

What about the “Thermoflour melting curve fluorescence of Notum” value ([3]; Temperature 46.5) of the same molecule?
The value was -693.454.

What about the “Thermoflour melting curve fluorescence of Notum” value ([3]; Temperature 47.5) of the same molecule?
The value was -545.549.

And the “Thermoflour melting curve fluorescence of Notum” value ([3]; Temperature 48.5)?
The value was -352.113.

And the “Thermoflour melting curve fluorescence of Notum” value ([3]; Temperature 49.5)?
The value was -114.575.

What about the “Thermoflour melting curve fluorescence of Notum” value ([3]; Temperature 50.5) of the same molecule?
Its value is 165.368.

What about the “Thermoflour melting curve fluorescence of Notum” value ([3]; Temperature 51.5) of the same molecule?
Its value is 475.15.

What about the “Thermoflour melting curve fluorescence of Notum” value ([3]; Temperature 52.5) of the same molecule?
The value was 801.618.

And the “Thermoflour melting curve fluorescence of Notum” value ([3]; Temperature 53.5)?
Its value is 1178.09.

What about the “Thermoflour melting curve fluorescence of Notum” value ([3]; Temperature 54.5) of the same molecule?
Its value is 1624.42.

And the “Thermoflour melting curve fluorescence of Notum” value ([3]; Temperature 55.5)?
Its value is 2146.78.

And the “Thermoflour melting curve fluorescence of Notum” value ([3]; Temperature 56.5)?
The value was 2764.33.

What about the “Thermoflour melting curve fluorescence of Notum” value ([3]; Temperature 57.5) of the same molecule?
Its value is 3495.42.

And the “Thermoflour melting curve fluorescence of Notum” value ([3]; Temperature 58.5)?
Its value is 4462.48.

And the “Thermoflour melting curve fluorescence of Notum” value ([3]; Temperature 59.5)?
Its value is 5756.59.

What about the “Thermoflour melting curve fluorescence of Notum” value ([3]; Temperature 60.5) of the same molecule?
The value was 7495.13.

And the “Thermoflour melting curve fluorescence of Notum” value ([3]; Temperature 61.5)?
Its value is 9729.04.

What about the “Thermoflour melting curve fluorescence of Notum” value ([3]; Temperature 62.5) of the same molecule?
The value was 12262.8.

And the “Thermoflour melting curve fluorescence of Notum” value ([3]; Temperature 63.5)?
The value was 14775.9.

And the “Thermoflour melting curve fluorescence of Notum” value ([3]; Temperature 64.5)?
The value was 17022.5.

And the “Thermoflour melting curve fluorescence of Notum” value ([3]; Temperature 65.5)?
Its value is 18955.6.

What about the “Thermoflour melting curve fluorescence of Notum” value ([3]; Temperature 66.5) of the same molecule?
Its value is 20556.8.

And the “Thermoflour melting curve fluorescence of Notum” value ([3]; Temperature 67.5)?
Its value is 21849.9.

What about the “Thermoflour melting curve fluorescence of Notum” value ([3]; Temperature 68.5) of the same molecule?
The value was 22932.3.

And the “Thermoflour melting curve fluorescence of Notum” value ([3]; Temperature 69.5)?
Its value is 23847.9.

What about the “Thermoflour melting curve fluorescence of Notum” value ([3]; Temperature 70.5) of the same molecule?
Its value is 24631.

What about the “Thermoflour melting curve fluorescence of Notum” value ([3]; Temperature 71.5) of the same molecule?
The value was 25359.6.

What about the “Thermoflour melting curve fluorescence of Notum” value ([3]; Temperature 72.5) of the same molecule?
Its value is 25975.5.

And the “Thermoflour melting curve fluorescence of Notum” value ([3]; Temperature 73.5)?
The value was 26515.7.

And the “Thermoflour melting curve fluorescence of Notum” value ([3]; Temperature 74.5)?
Its value is 27075.8.

And the “Thermoflour melting curve fluorescence of Notum” value ([3]; Temperature 75.5)?
Its value is 27622.8.

What about the “Thermoflour melting curve fluorescence of Notum” value ([3]; Temperature 76.5) of the same molecule?
Its value is 28157.3.

And the “Thermoflour melting curve fluorescence of Notum” value ([3]; Temperature 77.5)?
The value was 28616.3.

And the “Thermoflour melting curve fluorescence of Notum” value ([3]; Temperature 78.5)?
The value was 29028.5.

What about the “Thermoflour melting curve fluorescence of Notum” value ([3]; Temperature 79.5) of the same molecule?
Its value is 29470.8.

And the “Thermoflour melting curve fluorescence of Notum” value ([3]; Temperature 80.5)?
Its value is 29930.8.

And the “Thermoflour melting curve fluorescence of Notum” value ([3]; Temperature 81.5)?
The value was 30385.9.

And the “Thermoflour melting curve fluorescence of Notum” value ([3]; Temperature 82.5)?
Its value is 30819.6.

And the “Thermoflour melting curve fluorescence of Notum” value ([3]; Temperature 83.5)?
Its value is 31270.2.

What about the “Thermoflour melting curve fluorescence of Notum” value ([3]; Temperature 84.5) of the same molecule?
Its value is 31691.8.

And the “Thermoflour melting curve fluorescence of Notum” value ([3]; Temperature 85.5)?
The value was 32102.2.

And the “Thermoflour melting curve fluorescence of Notum” value ([3]; Temperature 86.5)?
The value was 32523.2.

What about the “Thermoflour melting curve fluorescence of Notum” value ([3]; Temperature 87.5) of the same molecule?
Its value is 32949.1.

And the “Thermoflour melting curve fluorescence of Notum” value ([3]; Temperature 88.5)?
The value was 33332.7.

And the “Thermoflour melting curve fluorescence of Notum” value ([3]; Temperature 89.5)?
The value was 33682.6.

And the “Thermoflour melting curve fluorescence of Notum” value ([3]; Temperature 90.5)?
Its value is 34084.7.

What about the “Thermoflour melting curve fluorescence of Notum” value ([3]; Temperature 91.5) of the same molecule?
Its value is 34496.3.

And the “Thermoflour melting curve fluorescence of Notum” value ([3]; Temperature 92.5)?
The value was 34921.9.

What about the “Thermoflour melting curve fluorescence of Notum” value ([3]; Temperature 93.5) of the same molecule?
The value was 35339.5.

What about the “Thermoflour melting curve fluorescence of Notum” value ([3]; Temperature 94.5) of the same molecule?
Its value is 35764.6.

And the “Thermoflour melting curve fluorescence of Notum” value ([3]; Temperature 95.5)?
Its value is 36159.7.

And the “Thermoflour melting curve fluorescence of Notum” value ([3]; Temperature 96.5)?
Its value is 36500.9.

And the “Thermoflour melting curve fluorescence of Notum” value ([3]; Temperature 97.5)?
The value was 36857.

What about the “Effect on Tm of Notum” value [3] of the same molecule?
Its value is “little effect on the Tm”.

What about the “Melting temperature (Tm) of Notum” value ([3]; Notum without compounds Tm 63.6 °C) of the same molecule?
The value was 63.5 °C.
